Experimental data from patent US10765672B2, “Pharmaceutical formulations of a HIF hydroxylase inhibitor” (FibroGen, Inc., priority 2013, dated 2020).

Test: Solid state sunlight exposure of Compound A powder, reverse phase HPLC
Format: physicochemical
Details: for purity value as measured by reverse phase HPLC: Compound A dry powder
Protocol: Approximately 500 mg of Compound A dry powder was placed in a 1-gallon polyethylene bag and exposed to sunlight for two months consecutively during daylight hours. The powder was in a very thin layer and the bag was shaken often to ensure that all the powder and not just the top layer was exposed to sunlight. A control sample of Compound A powder was stored in an amber vial in the dark for the same amount of time for comparison purposes. […] The light-exposed sample and the control sample were analyzed by HPLC to evaluate differences in their composition. The HPLC method used a reverse phase Zorbax Eclipse XDB-C8, 3.5 μm, 4.6×150 mm column. The mobile phase was comprised of water and acetonitrile mixtures acidified with trifluoroacetic acid. Gradient elution with increasing acetonitrile provided chromatograms of the control sample of Compound A (FIG. 1, before light exposure) and the light-exposed sample of Compound A (FIG. 1, after light exposure) with UV detection at 230 nm.
After exposure to sunlight, a new peak appeared in the chromatogram evidencing a new molecule.

- purity value as measured by reverse phase HPLC (after exposure to sunlight for two months): 98.4%
- purity value as measured by reverse phase HPLC (before exposure to sunlight): 99.1%
- visual inspection (colour) (control sample stored in amber vial in the dark, two months): yellow
- visual inspection (colour) (light-exposed sample, two months sunlight): off-white
SMILES: Cc1nc(C(=O)NCC(=O)O)c(O)c2ccc(Oc3ccccc3)cc12 [Compound A, [(4-hydroxy-1-methyl-7-phenoxy-isoquinoline-3-carbonyl)-amino]-acetic acid]
